We go through 63 compounds from patent publication US9101628B2, “Methods and composition of treating a flaviviridae family viral infection” (The Board of Trustees of the Leland Stanford Junior …, priority 2007, dated 2015).

This experiment relates to HCV RNA replication. The experiment in a line: RNA replication inhibition assay (luciferase reporter-linked HCV genome). The conditions noted are these: Hepatitis C virus, percentage of untreated control population; for activity at 5 µM: read-out: Residual Luciferase activity, 5 micromolar; for activity at 10 µM: read-out: Residual Luciferase activity, 10 micromolar. (In general: In a reporter assay the amount or activity of a reporter protein is the signal.)

In the case of `CCN(CC)c1c(C)c(C)cc2c1ncn2Cc1ccc(Cl)cc1` [Compound 73], the activity at 5 µM was less than 80% and the activity at 10 µM is less than 55%.
Turning to `Cc1ccccc1Cn1cnc2c(NS(C)(=O)=O)c(C)c(C)cc21` [Compound 74], the activity at 5 µM is more than 80% and the activity at 10 µM was more than 80%.
For the compound `Cc1cccc(Cn2cnc3c(NS(C)(=O)=O)c(C)c(C)cc32)c1` [Compound 75], the activity at 5 µM was more than 80% and the activity at 10 µM was less than 80%.
`Cc1cc2c(nc(C)n2Cc2ccccc2)c(NS(C)(=O)=O)c1C` [Compound 76]: the activity at 5 µM was more than 80% and the activity at 10 µM is less than 80%.
For the compound `Cc1cccc(Cn2c(C)nc3c(NS(C)(=O)=O)c(C)c(C)cc32)c1` [Compound 77], the activity at 5 µM was more than 80% and the activity at 10 µM was less than 80%.
For `Cc1cccc(Cn2cnc3c(NS(=O)(=O)C(F)(F)F)c(C)c(C)cc32)c1` [Compound 78], the activity at 5 µM was less than 55% and the activity at 10 µM was less than 20%.
As for `Cc1cc2c(ncn2C)c(NS(C)(=O)=O)c1C` [Compound 79], the activity at 5 µM was less than 80% and the activity at 10 µM was more than 80%.
Regarding `Cc1cccc(Cn2cnc3c(NS(=O)(=O)c4ccc(F)cc4)c(C)c(C)cc32)c1` [Compound 80], the activity at 5 µM is less than 55% and the activity at 10 µM is less than 80%.
In the case of `Cc1cc2c(ncn2Cc2ccc(Cl)cc2)c(CS(C)(=O)=O)c1C` [Compound 81], the activity at 5 µM is more than 80% and the activity at 10 µM was less than 80%.
`Cc1cc2c(ncn2Cc2ccc(Cl)cc2)c(NS(=O)(=O)c2cccc(Cl)c2)c1C` [Compound 82]: the activity at 5 µM is more than 80% and the activity at 10 µM was more than 80%.
On to `Clc1ccc(Cn2cnc3ccncc32)cc1` [Compound 83], for which the activity at 5 µM was less than 80% and the activity at 10 µM was less than 80%.
With `Clc1ccc(Cn2cnc3cnccc32)cc1` [Compound 84], the activity at 5 µM was less than 80% and the activity at 10 µM is more than 80%.
For `Clc1ccc(Cn2cnc3cccnc32)cc1` [Compound 85], the activity at 5 µM was more than 80% and the activity at 10 µM is less than 80%.
With `Clc1ccc(Cn2cnc3ncccc32)cc1` [Compound 86], the activity at 5 µM was more than 80% and the activity at 10 µM is less than 80%.
With `Cc1cc2nc(C(C)O)n(Cc3ccc(Cl)cc3)c2cc1C` (stereo not shown) [Compound 87], the activity at 5 µM was less than 55% and the activity at 10 µM was less than 55%.
As to `Cc1cc2nc(C(C)N3CCCC3)n(Cc3ccc(Cl)cc3)c2cc1C` (stereo not shown) [Compound 88], the activity at 5 µM is less than 55% and the activity at 10 µM is less than 20%.
For `Cc1cc2nc([C@H](C)N3CCC[C@H]3CO)n(Cc3ccc(Cl)cc3)c2cc1C` [Compound 89], in that order: less than 55% and less than 55%.
With `Cc1cc2nc([C@@H](C)C3CCC[C@H]3CO)n(Cc3ccc(Cl)cc3)c2cc1C` (stereo partly shown) [Compound 90], the activity at 5 µM is less than 80% and the activity at 10 µM is less than 55%.
`Cc1cc2nc([C@H](C)N3CCC[C@@H]3CO)n(Cc3ccc(Cl)cc3)c2cc1C` [Compound 91]: the activity at 5 µM was more than 80% and the activity at 10 µM is more than 80%.
For the compound `Cc1cc2nc([C@@H](C)N3CCC[C@@H]3CO)n(Cc3ccc(Cl)cc3)c2cc1C` [Compound 92], the activity at 5 µM was less than 55% and the activity at 10 µM is less than 20%.
For `Fc1cc2ncn(Cc3ccc(Cl)cc3)c2cc1F` [Compound 94], the activity at 5 µM was less than 80% and the activity at 10 µM is less than 55%.
With `OC[C@H]1CCCN1Cc1nc2ccccc2n1Cc1ccc(Cl)cc1` [Compound 95], the activity at 5 µM was more than 80% and the activity at 10 µM was less than 80%.
In the case of `Cc1cc2nc(CC3CCCC3)n(Cc3ccc(Cl)cc3)c2cc1C` [Compound 96], the activity at 5 µM was less than 80% and the activity at 10 µM was less than 55%.
On to `Cc1cc2nc(CN3CCC[C@@H]3C)n(Cc3ccc(Cl)cc3)c2cc1C` [Compound 97], for which the activity at 5 µM is less than 55% and the activity at 10 µM is less than 20%.
`Cc1cc2nc(CN3CCC[C@H]3C)n(Cc3ccc(Cl)cc3)c2cc1C` [Compound 98]: the activity at 5 µM was less than 55% and the activity at 10 µM was less than 20%.
Take `CCCS(=O)(=O)c1nc2ccccc2n1Cc1ccc(Cl)cc1` [Compound 99]: the activity at 5 µM is less than 20% and the activity at 10 µM was less than 20%.
Turning to `Clc1ccc(Cn2ccc3cc(Cl)cnc32)cc1` [Compound 100], the activity at 5 µM is more than 80% and the activity at 10 µM was less than 80%.
Regarding `COc1c(Cl)cnc2c1ccn2Cc1ccc(Cl)cc1` [Compound 101], the activity at 5 µM is more than 80% and the activity at 10 µM was less than 80%.
For `Cc1c(Cl)cnc2c1ccn2Cc1ccc(Cl)cc1` [Compound 102], the activity at 5 µM was less than 80% and the activity at 10 µM is less than 80%.
Consider `N#Cc1cnc2c(ccn2Cc2ccc(Cl)cc2)c1` [Compound 103], for which the activity at 5 µM was more than 80% and the activity at 10 µM was less than 55%.
On to `N#Cc1ccc2c(ccn2Cc2ccc(Cl)cc2)n1` [Compound 104], for which the activity at 5 µM was less than 55% and the activity at 10 µM was less than 55%.
As to `N#Cc1cnc2ccn(Cc3ccc(Cl)cc3)c2c1` [Compound 105], the activity at 5 µM was more than 80% and the activity at 10 µM was more than 80%.
Consider `COc1ccc(Cn2c(C)nc3c(NS(=O)(=O)c4ccc(F)cc4)c(C)c(C)cc32)cc1` [Compound 107], for which the activity at 5 µM is less than 80% and the activity at 10 µM was less than 55%.
For the compound `CCCC(=O)NCc1nc2ccccc2n1Cc1ccccc1C` [Compound 109], the activity at 5 µM is more than 80% and the activity at 10 µM is more than 80%.
`CC(=O)NCc1nc2ccccc2n1Cc1ccc(Cl)cc1` [Compound 110]: the activity at 5 µM was more than 80% and the activity at 10 µM is more than 80%.
Turning to `O=C(Cc1ccccc1)NCCCc1nc2ccccc2n1Cc1ccc(Cl)cc1` [Compound 111], the activity at 5 µM is less than 55% and the activity at 10 µM was less than 20%.
As to `CCc1nc2ccccc2n1Cc1ccc(Cl)cc1` [Compound 112], the activity at 5 µM is more than 80% and the activity at 10 µM is less than 80%.
Turning to `CCC(=O)NCc1nc2ccccc2[nH]1` [Compound 113], the activity at 5 µM is more than 80% and the activity at 10 µM was more than 80%.
On to `CCn1c(CNC=O)nc2ccccc21` [Compound 114], for which the activity at 5 µM was more than 80% and the activity at 10 µM was more than 80%.
On to `CC(C)(C)C(=O)NCc1nc2ccccc2[nH]1` [Compound 115], for which the activity at 5 µM is less than 80% and the activity at 10 µM was more than 80%.
With `CCCCCc1nc2ccccc2n1Cc1ccc(Cl)cc1` [Compound 116], the activity at 5 µM was less than 55% and the activity at 10 µM is less than 20%.
Turning to `CCCCc1nc2ccccc2n1Cc1ccc(Cl)cc1` [Compound 117], the activity at 5 µM is less than 20% and the activity at 10 µM was less than 20%.
As for `CC(C)Cc1nc2ccccc2n1Cc1ccc(Cl)cc1` [Compound 118], the activity at 5 µM is less than 55% and the activity at 10 µM was less than 55%.
With `CC(C)c1nc2ccccc2n1Cc1ccc(Cl)cc1` [Compound 119], the activity at 5 µM was less than 80% and the activity at 10 µM was less than 55%.
`Clc1ccc(Cn2c(Cc3ccccc3)nc3ccccc32)cc1` [Compound 120]: the activity at 5 µM was less than 80% and the activity at 10 µM is less than 55%.
Regarding `CC(C)c1nc2ccccc2n1Cc1ccc(Cl)cc1Cl` [Compound 121], the activity at 5 µM is more than 80% and the activity at 10 µM was less than 20%.
For `Clc1ccc(Cn2c(Cc3ccccc3)nc3ccccc32)c(Cl)c1` [Compound 122] the same measures were less than 55% and less than 55%.
Consider `FC(F)(F)c1nc2ccccc2n1Cc1ccc(Cl)cc1` [Compound 123], for which the activity at 5 µM was more than 80% and the activity at 10 µM is less than 80%.
For `FC(F)(F)c1nc2ccccc2n1Cc1ccc(Cl)c(Cl)c1` [Compound 124], in that order: less than 55% and less than 55%.
Regarding `Cc1nc2cc(Cl)ccc2n1Cc1ccccc1` [Compound 125], the activity at 5 µM is less than 80%.
On to `CC(=O)N(C)Cc1nc2ccccc2n1Cc1ccc(Cl)cc1Cl` [Compound 126], for which the activity at 5 µM was less than 80% and the activity at 10 µM was less than 55%.
Turning to `Clc1ccc(Cn2c(CN3CCOCC3)nc3ccccc32)cc1` [Compound 127], the activity at 5 µM was less than 55% and the activity at 10 µM is less than 55%.
Turning to `Cc1cc2ncn(Cc3ccccc3)c2cc1C` [Compound 128], the activity at 5 µM is less than 55% and the activity at 10 µM was less than 55%.
For the compound `Cc1cc2ncn(Cc3ccc(F)cc3)c2cc1C` [Compound 129], the activity at 5 µM was more than 80% and the activity at 10 µM was more than 80%.
As for `Cc1cc2ncn(Cc3ccc(Cl)cc3Cl)c2cc1C` [Compound 130], the activity at 5 µM was less than 55% and the activity at 10 µM was less than 20%.
`Cc1cc2ncn(Cc3ccc(Cl)c(Cl)c3)c2cc1C` [Compound 131]: the activity at 5 µM is less than 80% and the activity at 10 µM was less than 55%.
On to `NC1=NC2CCCCC2N1C(=O)c1ccc(Cl)cc1` (stereo not shown) [Compound 132], for which the activity at 5 µM was more than 80% and the activity at 10 µM is more than 80%.
`Nc1nc2ccccc2n1C(=O)c1ccc(Cl)cc1` [Compound 133]: the activity at 5 µM was more than 80% and the activity at 10 µM was less than 55%.
As for `Brc1ccc(Cn2cnc3ccccc32)cc1` [Compound 134], the activity at 5 µM is less than 55% and the activity at 10 µM was less than 20%.
As to `Cc1nc2ccccc2n1Cc1ccc(Br)cc1` [Compound 135], the activity at 5 µM is less than 20% and the activity at 10 µM was less than 20%.
On to `OCc1nc2ccccc2n1Cc1ccc(Br)cc1` [Compound 136], for which the activity at 10 µM is less than 55%.
For `N#Cc1ccc(Cn2cnc3ccccc32)cc1` [Compound 137], the activity at 5 µM is less than 80% and the activity at 10 µM is less than 80%.
As to `Cc1cc2ncn(Cc3ccc(C#N)cc3)c2cc1C` [Compound 138], the activity at 5 µM was less than 80% and the activity at 10 µM is more than 80%.
